Laboratory results reported in the NIST ThermoML archive (doi:10.1016/j.tca.2017.12.013).
± gives the expanded uncertainty stated by the source.

**Q.** What does the source list for `[Ag+].[Ag+].[S-2]` [silver sulfide]?
**A.** Triple point temperature (Crystal 2, DSC): 858 ± 1 K; Triple point temperature (Crystal 2, Volume change): 865 ± 10 K; Triple point temperature (Crystal 3, DSC): 451 ± 1 K; Triple point temperature (Crystal 3, Volume change): 456 ± 5 K
